According to patent US12157730B2, “Heteroaryl derivative, method for producing same, and pharmaceutical composition comprising same as effective component” (VORONOI INC., priority 2019, dated 2024):

Key:
[1] = target: T1, Ba/F3 cell EGFR L858R/T790M (Homo sapiens, UniProt P00533, L858R/T790M); experiment: Ba/F3 cell proliferation suppression, EGFR L858R/T790M; assay type: cell-based; details: 72 hours after treatment, CellTiter-Glo
T1 construct: expressed in transfected cells; host or cells: Ba/F3
Method: (§1) The following experiment was carried out to evaluate the suppression activity of the compounds according to the present invention against proliferation of Ba/F3 and lung cancer cells which express EGFR mutations.
(§2) Of the cancer cell lines expressing the EGFR gene, A549 was cultured after adding 10% FBS (HyClone) to DMEM (Invitrogen), and RPMI-1640 (Invitrogen) with 10% FBS was used for the other cancer cells. For the Ba/F3 cells, RPMI-1640 with 10% FBS and 5 ng/ml IL-3 (R&D Systems) was used. The transduced Ba/F3 cells were cultured by adding 1 ug/ml puromycin (Invitrogen) to the same medium.
(§3) 24 hours before treatment with the compounds, 3000 to 5000 cells were distributed into each well of a white clear bottom 96 well plate (Corning). The compounds were diluted in dimethylsulfoxide (dilution ratio 3:1; 12 concentrations total) and injected 0.5 ul each for a final concentration of 0.3 nM to 50 um. As for measurement of live cells, 72 hours after treatment with the compounds, a CellTiter-Glo luminescent cell-viability reagent (Promega) was used to store the cells at room temperature for 10 minutes, followed by measurement of luminescence using a reader (SynergyNeo, Biotek). Each test was repeated three times.
(§4) The result was calculated as a cell growth ratio (%) compared to a control. The program GraphPad Prism version 5.0 was used to draw the graphs and calculate the GI50 values.

[2] = system: Ba/F3 cell EGFR Del19/T790M; experiment: Ba/F3 cell proliferation suppression, EGFR Del19/T790M; assay type: cell-based; details: 72 hours after treatment, CellTiter-Glo
Method: as §1, §2, §3, §4

[3] = target: T2, Ba/F3 cell EGFR L858R (Homo sapiens, UniProt P00533, L858R); experiment: Ba/F3 cell proliferation suppression, EGFR L858R; assay type: cell-based; details: 72 hours after treatment, CellTiter-Glo
T2 construct: expressed in transfected cells; host or cells: Ba/F3
Method: as §1, §2, §3, §4

[4] = target: T3, Ba/F3 cell EGFR Exon20 ins NPH (Homo sapiens, UniProt P00533, INS773NPH); experiment: Ba/F3 cell proliferation suppression, EGFR Exon20 ins NPH; assay type: cell-based; details: for GI50: 72 hours after treatment, CellTiter-Glo; for Ba/F3 (NPH) Activity: GI50 class, Ba/F3 cell line with NPH inserted at Exon20 of EGFR, 72 hours
T3 construct: expressed in transfected cells; host or cells: Ba/F3
How it was run: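 72 h compound exposure, 0.3 nM–50 um (12 points, 3:1 dilution in DMSO); viability by CellTiter-Glo luminescence. Ba/F3 medium: RPMI-1640, 10% FBS, 5 ng/ml IL-3, 1 ug/ml puromycin for transduced cells. GI50 vs control, n=3.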

[5] = target: T4, Ba/F3 cell EGFR Exon20 ins SVD (Homo sapiens, UniProt P00533, INS770SVD); experiment: Ba/F3 cell proliferation suppression, EGFR Exon20 ins SVD; assay type: cell-based; details: 72 hours after treatment, CellTiter-Glo
T4 construct: expressed in transfected cells; host or cells: Ba/F3
Method: as §1, §2, §3, §4

[6] = target: T5, Ba/F3 cell EGFR Exon20 ins FQEA (Homo sapiens, UniProt P00533, INS763FQEA); experiment: Ba/F3 cell proliferation suppression, EGFR Exon20 ins FQEA; assay type: cell-based; details: 72 hours after treatment, CellTiter-Glo
T5 construct: expressed in transfected cells; host or cells: Ba/F3
Method: as §1, §2, §3, §4

[7] = target: T6, Ba/F3 cell EGFR Exon20 ins ASV (Homo sapiens, UniProt P00533, INS769ASV); experiment: Ba/F3 cell proliferation suppression, EGFR Exon20 ins ASV; assay type: cell-based; details: 72 hours after treatment, CellTiter-Glo
T6 construct: expressed in transfected cells; host or cells: Ba/F3
Method: as §1, §2, §3, §4

[8] = target: T7, Ba/F3 cell HER2 Exon20 ins YVMA (Homo sapiens, UniProt P04626, INS775YVMA); experiment: Ba/F3 cell proliferation suppression, HER2 Exon20 ins YVMA; assay type: cell-based; details: 72 hours after treatment, CellTiter-Glo
T7 construct: expressed in transfected cells; host or cells: Ba/F3
Method: as §1, §2, §3, §4

[9] = system: Ba/F3 cell naive; experiment: Ba/F3 cell proliferation suppression, naive; assay type: cell-based; details: Mus musculus, BaF3; 72 hours after treatment, CellTiter-Glo
Method: as §1, §2, §3, §4

[10] = system: PC9GR; experiment: Lung cancer cell proliferation suppression, PC9GR; assay type: cell-based; details: 72 hours after treatment, CellTiter-Glo
Method: as §1, §2, §3, §4

[11] = system: H1975; experiment: Lung cancer cell proliferation suppression, H1975; assay type: cell-based; details: Homo sapiens, NCI-H1975; 72 hours after treatment, CellTiter-Glo
Method: as §1, §2, §3, §4

[12] = system: PC9; experiment: Lung cancer cell proliferation suppression, PC9; assay type: cell-based; details: Homo sapiens, PC-9; 72 hours after treatment, CellTiter-Glo
Method: as §1, §2, §3, §4

[13] = system: scanMAX kinase panel (EGFR mutant, ERBB2, ERBB4); experiment: DiscoverX (eurofin) KINOMEscan (scanMAX platform) kinase profiling; assay type: binding; details: for suppression activity against the EGFR mutant and ERBB2 and ERBB4: KINOMEscan scanMAX kinase profiling
Excerpt: It was confirmed that the above example compounds had high selectivity against EGFR series genes. Accordingly, these can be useful in the treating of cancers wherein this kinase is expressed. In particular, as they have substantially outstanding lung cancer cell line proliferation suppression, they can be useful in the treatment of lung cancer, breast cancer, and brain cancer.

T7 sequence (P04626 with tags, fused parts or gaps INS775YVMA): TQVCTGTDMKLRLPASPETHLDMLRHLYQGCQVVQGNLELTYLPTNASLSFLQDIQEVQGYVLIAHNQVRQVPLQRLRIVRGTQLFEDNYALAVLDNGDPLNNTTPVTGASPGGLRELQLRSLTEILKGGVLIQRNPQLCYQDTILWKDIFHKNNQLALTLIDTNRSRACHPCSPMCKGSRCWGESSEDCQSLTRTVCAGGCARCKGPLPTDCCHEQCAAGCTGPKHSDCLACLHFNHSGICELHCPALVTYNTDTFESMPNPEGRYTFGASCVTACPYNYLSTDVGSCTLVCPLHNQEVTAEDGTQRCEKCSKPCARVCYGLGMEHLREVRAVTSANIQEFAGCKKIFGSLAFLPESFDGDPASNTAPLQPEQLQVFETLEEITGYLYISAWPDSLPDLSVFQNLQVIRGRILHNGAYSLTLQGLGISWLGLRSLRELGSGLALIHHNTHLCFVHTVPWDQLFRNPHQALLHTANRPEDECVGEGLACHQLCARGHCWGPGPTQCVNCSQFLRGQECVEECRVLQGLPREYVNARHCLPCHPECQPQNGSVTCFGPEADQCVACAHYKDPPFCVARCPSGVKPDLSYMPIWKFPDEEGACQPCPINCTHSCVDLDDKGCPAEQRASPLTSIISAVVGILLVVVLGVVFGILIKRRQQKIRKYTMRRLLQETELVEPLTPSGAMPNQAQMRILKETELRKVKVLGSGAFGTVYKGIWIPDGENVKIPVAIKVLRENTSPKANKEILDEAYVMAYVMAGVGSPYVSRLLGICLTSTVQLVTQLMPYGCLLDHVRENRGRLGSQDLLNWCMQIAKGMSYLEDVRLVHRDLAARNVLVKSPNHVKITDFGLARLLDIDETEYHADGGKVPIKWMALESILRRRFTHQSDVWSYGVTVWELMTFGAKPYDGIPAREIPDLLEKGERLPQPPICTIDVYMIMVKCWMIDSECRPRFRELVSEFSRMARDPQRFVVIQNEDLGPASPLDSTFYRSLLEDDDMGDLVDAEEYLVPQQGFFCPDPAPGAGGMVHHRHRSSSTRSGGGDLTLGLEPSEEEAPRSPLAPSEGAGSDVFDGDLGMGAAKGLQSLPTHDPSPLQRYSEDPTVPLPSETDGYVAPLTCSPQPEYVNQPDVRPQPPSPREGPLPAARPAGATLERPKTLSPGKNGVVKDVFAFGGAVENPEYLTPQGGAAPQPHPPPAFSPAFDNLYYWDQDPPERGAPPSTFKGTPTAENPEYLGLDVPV

GI50 [1] [µM]	GI50 [2] [µM]	GI50 [3] [µM]	GI50 [4] [µM]	Ba/F3 (NPH) Activity [4]	GI50 [5] [µM]	GI50 [6] [µM]	GI50 [7] [µM]	GI50 [8] [µM]	GI50 [9] [µM]	GI50 [10] [nM]	GI50 [11] [nM]	GI50 [12] [nM]	% inhibition of scanMAX Kinase profiling ([13]; EGFR(E746-A750del)) [%]	% inhibition of scanMAX Kinase profiling ([13]; EGFR(G719C)) [%]	% inhibition of scanMAX Kinase profiling ([13]; EGFR(G719S)) [%]	% inhibition of scanMAX Kinase profiling ([13]; EGFR(L747-E749del, A750P)) [%]	% inhibition of scanMAX Kinase profiling ([13]; EGFR(L747-T751del.Sins)) [%]	% inhibition of scanMAX Kinase profiling ([13]; EGFR(L858R)) [%]	% inhibition of scanMAX Kinase profiling ([13]; EGFR(L858R.T790M)) [%]	Compound	also measured
< 0.05	< 0.05	< 0.05	< 0.05	A (GI50 < 50 nM)	< 0.05	< 0.05	< 0.05	< 0.05	≥ 5	4	1	1	98	100	100	98	100	100	96	C=CC(=O)Nc1cc(Nc2cc(N3OCC[C@@H]3c3cc(F)cc(F)c3)ncn2)c(OC)cc1N1CCC(N2CCN(C3CC3)CC2)CC1 [Example 57]	% inhibition of scanMAX Kinase profiling ([13]; EGFR(L861q)): 100%; % inhibition of scanMAX Kinase profiling ([13]; EGFR(S752-I759del)): 98%; % inhibition of scanMAX Kinase profiling ([13]; EGFR(T790M)): 100%; % inhibition of scanMAX Kinase profiling ([13]; ERBB2): 100%; % inhibition of scanMAX Kinase profiling ([13]; ERBB4): 100%; suppression activity against the EGFR mutant and ERBB2 and ERBB4 [13]: high suppression activity
< 0.05	< 0.05	< 0.05	< 0.05	A (GI50 < 50 nM)	< 0.05	< 0.05	< 0.05	< 0.05	≥ 5	5	1	1	96	100	99	95	93	100	98	C=CC(=O)Nc1cc(Nc2cc(N3OCC[C@@H]3c3cc(F)cc(F)c3)ncn2)c(OC)cc1N1CCC(N2C[C@@H]3C[C@H]2CO3)CC1 [Example 239, N-(2-(4-((1S,4S)-2-oxa-5-azabicyclo[2.2.1]heptane-5-yl)piperidine-1-yl)-5-((6-((R)-3-(3,5-difluorophenyl)isoxazolidine-2-yl)pyrimidine-4-yl)amino)-4-methoxyphenyl) acrylamide]	% inhibition of scanMAX Kinase profiling ([13]; EGFR(L861q)): 97%; % inhibition of scanMAX Kinase profiling ([13]; EGFR(S752-I759del)): 82%; % inhibition of scanMAX Kinase profiling ([13]; EGFR(T790M)): 100%; % inhibition of scanMAX Kinase profiling ([13]; ERBB2): 100%; % inhibition of scanMAX Kinase profiling ([13]; ERBB4): 100%; suppression activity against the EGFR mutant and ERBB2 and ERBB4 [13]: high suppression activity
< 0.05	< 0.05	< 0.05	< 0.05	A (GI50 < 50 nM)	< 0.05	< 0.05	< 0.05	< 0.05	0.5 to 5	4	1	1	100	100	100	91	92	99	98	C=CC(=O)Nc1cc(Nc2cc(N3OCC[C@@H]3c3cc(F)cc(F)c3)ncn2)c(OC)cc1N1CCC(N2C[C@H]3C[C@@H]2CO3)CC1 [Example 238, N-(2-(4-((1R,4R)-2-oxa-5-azabicyclo[2.2.1]heptane-5-yl)piperidine-1-yl)-5-((6-((R)-3-(3,5-difluorophenyl)isoxazolidine-2-yl)pyrimidine-4-yl)amino)-4-methoxyphenyl) acrylamide]	% inhibition of scanMAX Kinase profiling ([13]; EGFR(L861q)): 98%; % inhibition of scanMAX Kinase profiling ([13]; EGFR(S752-I759del)): 91%; % inhibition of scanMAX Kinase profiling ([13]; EGFR(T790M)): 100%; % inhibition of scanMAX Kinase profiling ([13]; ERBB2): 100%; % inhibition of scanMAX Kinase profiling ([13]; ERBB4): 100%; suppression activity against the EGFR mutant and ERBB2 and ERBB4 [13]: high suppression activity
